# Data published in patent US10688113B2 (priority 2015, dated 2020).
# How the values were obtained:
# [1] = test system: capsaicin-induced ocular pain; conditions: rabbits, 1 to 28 mM administered 15 minutes before application of capsaicin; cited from earlier work
# [2] = test system: capsaicin-induced blinking; conditions: cited from earlier work
# [3] = test system: contractile responses to capsaicin; conditions: morphine 5×100 μM; cited from earlier work
# [4] = test system: mechanical allodynia induced by 0.2% BAC; assay: Keratitis induced by chronic instillation of 0.2% benzalkonium chloride (BAC), Von Frey filaments; type: in vivo, male C57BL/6 mice; conditions: mice, 0.2% BAC for 6 days then 10 mM twice-daily for 5 days; vs 1×PBS
# Description: Chronic instillation of 0.2% benzalkonium chloride induces chronic inflammation of the cornea with generation of ocular pain (Launay et al. (2016) Neurobiol. Dis., 88 16-28). This model was used as a model of chemical keratitis.
# Study of corneal sensitivity in mice treated twice-daily with compound 2 for 5 days first treated with 0.2% BAC for 6 days. The corneal mechanical sensitivity of male C57BL/6 mice, treated with 0.2% BAC for 6 days, then twice-daily with compound 2 for 5 days, was evaluated at various times using Von Frey filaments, compared with a control group receiving twice-daily 1×PBS (n=10 animals per group). The use of Von Frey filaments (applied to the centre of the cornea of a conscious animal) is perfectly feasible for measuring corneal mechanical allodynia in mice. In the context of dry eye, the technique produces mechanical allodynia in the patient: the simple fact of closing the eyelid induces a painful sensation. Lastly, this behavioural test is most like the one used in human clinical practice (Cochet-Bonnet) to measure corneal mechanical sensitivity.
# The results obtained are presented in FIG. 7 (y-axis: weight of the Von Frey filament in grams). The histogram on the left represents the response of mice treated with PBS, while the histogram on the right represents the response of mice treated with compound 2.
# [5] = test system: capsaicin-induced ocular pain (100 μM); assay: Capsaicin test (100 μM) after chronic twice-daily treatment on trephine-injured cornea; type: in vivo, male C57BL/6 mice; conditions: mice, trephine corneal injury, 10 mM topical twice-daily for 4 days, capsaicin 100 μM 15 min after last instillation; vs PBS
# Experimental: The compounds of formula I of the present invention were also tested, in 8-week-old male C57BL/6 mice (JANVIER LABS), using a capsaicin test (100 μM) after twice-daily treatment for 5 days of the compound of formula I on cornea injured beforehand (with a 1.5 mm diameter trephine).
# Analgesic effect of compound 2 in the model of capsaicin-induced ocular pain (100 μM). A corneal epithelial injury was made on the right cornea of male C57BL/6 mice (JANVIER LABS) using a 1.5 mm diameter trephine. Once the animals were operated on, a twice-daily topical treatment, for 4 days, is carried out with 1×PBS (5 animals per group) or with 10 mM compound 2 (5 animals per group). On day 4, 15 minutes after the last instillation, 100 μM capsaicin is instilled and the behavioural analysis is performed. The results obtained corresponding to the trephine injury alone before capsaicin are shown in FIG. 5 (y-axis: palpebral closure time in seconds).
# During this test, de-epithelialization of the corneal epithelium of the left eye of the mouse is carried out using a 1.5 mm diameter trephine. This surgery is carried out under a surgical microscope. This procedure lasts at most 3 minutes per animal. The depth and surface area of corneal de-epithelialization are standardized and then evaluated by a slit-lamp examination. The advantage of this surgical tool is standardization of the injury. […]
# [6] = test system: LPS-induced bacterial keratitis; assay: LPS-induced inflammation model (corneal scratch, LPS 50 μg) followed by capsaicin instillation; type: in vivo; conditions: mice, LPS 50 μg days 1 and 4, 10 mM twice-daily for 5 days, capsaicin 100 μM on day 5, vs PBS
# Experimental: Bacterial lipopolysaccharide (LPS, endotoxin) is a potent stimulator of inflammatory responses and contributes to microbial keratitis and to corneal ulcers (Khatri et al. 2002 Invest. Ophthal. Vis. Sci., 43 2278-2284).
# Effect of compound 2 in a model of LPS-induced inflammation (50 μg). A corneal epithelial injury (scratch) is made with a trephine (1.5 mm diameter) in mice, followed by topical treatment with LPS (50 μg, two administrations on days 1 and 4) then twice-daily chronic treatment for 5 days with 1×PBS (control group) or with compound 2 (10 mM) (n=6 animals per group), followed by capsaicin instillation (100 μM) on day 5. The results obtained are presented in FIG. 8 (y-axis: palpebral closure time in seconds). The histogram on the left represents the response of mice treated with PBS, while the histogram on the right represents the response of mice treated with compound 2.
# [7] = test system: capsaicin-induced ocular pain (33 mM); assay: Capsaicin-induced ocular pain, acute treatment (single instillation 15 min before capsaicin); type: in vivo, New Zealand white rabbits; conditions: rabbit, single instillation of 10 mM, 15 min before capsaicin 33 mM; compared with capsazepine 5 mM
# Experimental: In order to study the pharmacological activity of the present invention in the case of ocular pain, the compounds of formula (I) were tested using the model of capsaicin-induced ocular pain. In this model, previously used in the literature (Gonzalez et al. (1993) Invest. Ophthalmol. Vis. Sci., 34(12), 3329-3335), in adult rabbits, the number of lid-squeezing movements, the degree of palpebral opening, miotic response and conjunctival vasodilation evoked by a bilateral instillation of 30 μL of capsaicin (33 mM) were measured at different times after administration of the drug. To that end, the responses to this test in eyes pre-treated with various calcium antagonists (diltiazem, verapamil or nifedipine) were compared with those that had received only vehicle.
# The procedure and the timing were as follows:
# Evaluation of corneal pain by observing conjunctival hyperaemia after pain induction (a single instillation of 1% capsaicin (33 mM) in the right eye) in albino rabbits. Pre-treatment with the compound to be tested, 15 min before capsaicin instillation.
# [8] = test system: corneal mechanical sensitivity (allodynia); assay: Corneal mechanical sensitivity (allodynia), Von Frey filaments, trephine-injured cornea plus capsaicin; type: in vivo, male C57BL/6 mice; conditions: mice, 10 mM topical twice-daily for 5 days, capsaicin 100 μM, vs 1×PBS
# Experimental: During this test, de-epithelialization of the corneal epithelium of the left eye of the mouse is carried out using a 1.5 mm diameter trephine. This surgery is carried out under a surgical microscope. This procedure lasts at most 3 minutes per animal. The depth and surface area of corneal de-epithelialization are standardized and then evaluated by a slit-lamp examination. The advantage of this surgical tool is standardization of the injury. The 8-week-old male C57BL/6 mice thus treated receive a twice-daily treatment for 5 days of the compound of formula I or PBS before the application of capsaicin.
# Additional pain is induced by capsaicin (100 μM). Corneal mechanical sensitivity (allodynia) was measured using Von Frey filaments, 5 days after treatment, on mice treated with compound 1 (10 mM), with compound 2 (10 mM) or, for the control group, with 1×PBS (n=5 animals per group). The results obtained are presented in FIG. 6 (y-axis: weight of the Von Frey filament in grams). The histogram on the left (black) represents the response of mice treated with PBS, the histogram in the middle represents the response of mice treated with compound 1 and the histogram on the right represents the response of mice treated with compound 2.
compound,measurement,setting,value
COc1ccc([C@@H]2Sc3ccccc3N(CCN(C)C)C(=O)[C@@H]2OC(C)=O)cc1 [diltiazem],"capsaicin-induced scratching movements, conjunctival hyperaemia, eye closure and elevated aqueous protein concentration",[1],significantly decreased
CN1CC[C@]23c4c5ccc(O)c4O[C@H]2[C@@H](O)C=C[C@H]3[C@H]1C5 [morphine],"blinking, healthy non-inflamed rat cornea","[2]; applied to healthy, non-inflamed rat cornea",no effect on blinking
same,capsaicin-induced blinking,"[2]; rats, topical application of a drop, 5 μM",attenuates capsaicin-induced blinking in a concentration-dependent manner
same,contractile responses to capsaicin,[3],partially inhibited
CC(OC(=O)N[C@@H](C)P(=O)([O-])C[C@@H](Cc1ccc(-c2ccccc2)cc1)C(=O)N[C@@H](C)C(=O)[O-])OC(=O)C(C)C.[Na+].[Na+] (stereo partly shown) [compound 2],mechanical allodynia induced by 0.2% BAC (Von Frey filaments),[4],significantly reduced (higher sensitivity threshold)
same,analgesic effect (cumulative palpebral closure time) in the capsaicin test,[5],very significant analgesic effect (shorter cumulative palpebral closure time)
same,analgesic effect (cumulative palpebral closure time) in LPS-induced keratitis,[6],very significant analgesic effect (shorter cumulative palpebral closure time)
same,analgesic effect on conjunctival hyperaemia following pain induction by capsaicin,[7],"superior to the reference product, capsazepine"
same,analgesic effect on palpebral opening following pain induction by capsaicin,[7],"superior to the reference product, capsazepine"
same,mechanical sensitivity measured with Von Frey filaments,[8],significant decrease
C[C@H](NC(=O)[C@H](Cc1ccc(-c2ccccc2)cc1)CP(=O)([O-])[C@H](C)N)C(=O)[O-].[Na+].[Na+] [compound 1],analgesic effect on conjunctival hyperaemia following pain induction by capsaicin,[7],"superior to the reference product, capsazepine"
same,analgesic effect on palpebral opening following pain induction by capsaicin,[7],"superior to the reference product, capsazepine"
same,mechanical sensitivity measured with Von Frey filaments,[8],significant decrease
